Test results taken from PubChem BioAssay (NCI).
Values joined by “and” are separate entries in the source; they are usually repeats but may differ in a detail not shown here. Identical values can stand only once.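 Following 48 hours of exposure in 96-well plates, responses at five concentrations were used to interpolate endpoints linearly. GI50 marks 50% less growth. TGI marks complete inhibition of growth.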

How the values were obtained:
Test in all cases: DTP human tumour cell line panel, 48 h
SNB-19 CNS = tested on: SNB-19 CNS
UO-31 renal = tested on: UO-31 renal
NCI-H460 lung = tested on: NCI-H460 lung
MCF7 breast = tested on: MCF7 breast
M14 melanoma = tested on: M14 melanoma
LOX IMVI melanoma = tested on: LOX IMVI melanoma
A498 renal = tested on: A498 renal
NCI-H522 lung = tested on: NCI-H522 lung
PC-3 prostate = tested on: PC-3 prostate
HCC-2998 colon = tested on: HCC-2998 colon

| SMILES | TGI (SNB-19 CNS) | TGI (UO-31 renal) | TGI (NCI-H460 lung) | TGI (MCF7 breast) | TGI (M14 melanoma) | TGI (LOX IMVI melanoma) | TGI (A498 renal) | TGI (NCI-H522 lung) | TGI (PC-3 prostate) | TGI (HCC-2998 colon) | GI50 (SNB-19 CNS) | GI50 (UO-31 renal) | GI50 (NCI-H460 lung) | GI50 (MCF7 breast) | GI50 (M14 melanoma) | GI50 (LOX IMVI melanoma) | GI50 (A498 renal) | GI50 (NCI-H522 lung) | GI50 (PC-3 prostate) | GI50 (HCC-2998 colon) |
| --- | --- | --- | --- | --- | --- | --- | --- | --- | --- | --- | --- | --- | --- | --- | --- | --- | --- | --- | --- | --- |
| Nc1nc(-c2ccccc2)nc2c1[n+]([O-])c1ccccc1[n+]2[O-] | > 100 µM | > 100 µM | > 100 µM | > 100 µM | > 100 µM | > 100 µM | > 100 µM | > 100 µM | > 100 µM | > 100 µM |  |  |  |  |  |  |  |  |  |  |
| NC(=O)c1ccc2nc(-c3ccc(Oc4ccc(Cl)cc4)cc3)[nH]c2c1 | > 75 µM and 52.6 µM | 75 µM and > 100 µM | 75 µM and 32.7 µM | 75 µM and 23.9 µM | 75 µM and 29.8 µM | 75 µM and 36.7 µM | 75 µM and 30.1 µM | 75 µM and 75.2 µM | 75 µM and 25.5 µM | 75 µM and 33.5 µM | > 75 µM and 22.5 µM | 30 µM and 24.1 µM | 23.4 µM and 14.1 µM | 33.1 µM and 6.4 µM | 19.9 µM and 14.8 µM | 17.9 µM and 15.6 µM | 21.2 µM and 15.7 µM | 18.9 µM and 19.9 µM | 55.3 µM and 11.2 µM |  |
| COc1ccc(-c2nc3ccccn3c2/C=C/C(=O)c2cc(OC)c(OC)c(OC)c2)cc1 | > 100 µM | > 100 µM | 31 µM | 21.4 µM | 28.6 µM | > 100 µM | 43.9 µM | 23.4 µM | > 100 µM | 42 µM | 25.2 µM | 1.31 µM | 4.09 µM | 2.38 µM | 9.8 µM | 6.05 µM | 10.4 µM | 3.12 µM | 19.8 µM | 8.27 µM |
| COc1cc(O)c(C(=O)/C=C/c2ccc(O)cc2)c(O)c1[C@@H]1C[C@H](CCc2ccc(O)cc2)O[C@H](c2ccc(O)cc2)C1 | 13.3 µM | 14.1 µM | 7.87 µM | 8.85 µM | 12.2 µM | 8.37 µM | 28.1 µM | 9.94 µM | 12.5 µM | 4.02 µM | 3.58 µM | 3.17 µM | 3 µM | 3.08 µM | 3.48 µM | 2.93 µM | 14 µM | 2.97 µM | 3.37 µM | 2.25 µM |
| Fc1ccc(Nc2nc3nonc3nc2Nc2ccc(F)cc2)cc1 | 16.1 µM | 1.33 µM | 10.5 µM | 11.2 µM | 10.5 µM | 4.29 µM | 0.66 µM | 0.561 µM | 11.2 µM | 5.49 µM | 0.386 µM | 0.285 µM | 0.319 µM | 0.567 µM | 0.586 µM | 0.469 µM | 0.163 µM | 0.194 µM | 0.28 µM | 0.414 µM |
| CN1c2ccccc2C(C)(C)C12C=Cc1cc(O)ccc1O2 (stereo unspecified) | 8.46 µM | 19.5 µM | 6.45 µM |  | 5.52 µM | 12.6 µM | 6.3 µM | 24.9 µM | 12.6 µM | 9.47 µM | 2.94 µM | 4.02 µM | 2.28 µM | 3.52 µM | 2.35 µM | 3.41 µM | 2.39 µM | 3.6 µM | 3.6 µM | 4.22 µM |
| COc1ccc(OC)c(/C=C(/C)[N+](=O)[O-])c1 | 23.3 µM | 2.8 µM | 12.7 µM | 2.21 µM | 4.24 µM | 3.06 µM | 20.9 µM | 3.64 µM | 5.63 µM | 3.41 µM | 9.52 µM | 1.42 µM | 3.41 µM | 0.832 µM | 2.14 µM | 1.34 µM | 8.24 µM | 1.93 µM | 2.4 µM | 1.84 µM |
| O=[N+]([O-])c1c(Br)sc(Br)c1[N+](=O)[O-] | 27.9 µM | 3.55 µM | 28.1 µM | 7.65 µM |  | 3.07 µM | 26 µM | 1.95 µM | 4.03 µM | 26.2 µM | 13.4 µM | 1.59 µM | 6.67 µM | 2.2 µM |  | 1.58 µM | 13.2 µM | 0.613 µM | 1.94 µM | 12.3 µM |
| COc1cc2c(cc1C)NC(=O)/C2=C\c1cccc(Oc2ccccc2)c1 | 28.1 µM | 27.5 µM | 27.2 µM | 24 µM | 31 µM | 26.4 µM | 22.5 µM | 34.4 µM | 25.2 µM | 24.4 µM | 14.3 µM | 11.7 µM | 12.9 µM | 6.73 µM | 16.6 µM | 12.9 µM | 10.5 µM | 13.5 µM | 12 µM | 11.6 µM |
| CC1(C)[C@@H](O[C@@H]2OC[C@@H](O[C@@H]3O[C@H](CO)[C@@H](O)[C@H](O)[C@H]3O[C@@H]3OC[C@@H](O)[C@H](O)[C@H]3O)[C@H](O)[C@H]2O[C@@H]2O[C@H](CO)[C@@H](O)[C@H](O)[C@H]2O)CC[C@]2(C)[C@H]3CC[C@]45OC[C@@]6(CC[C@](C)(C=O)C[C@H]64)[C@H](O)C[C@@]5(C)[C@]3(C)CC[C@@H]12 | 1.77 µM | 1.32 µM | 3.26 µM | 2.43 µM | 1.81 µM | 1.95 µM | 1.53 µM | 1.83 µM | 1.78 µM | 1.75 µM | 0.872 µM | 0.649 µM | 1.17 µM | 0.972 µM | 0.925 µM | 0.924 µM | 0.825 µM | 0.903 µM | 0.884 µM | 0.931 µM |
| Oc1[nH]c2ccc(Cl)cc2c1/C=c1/ccc2c(c1)N=C(c1ccc(F)cc1)N=2 | 5.14 µM | 11 µM | 4.52 µM | 2.83 µM | 2.98 µM | 3.01 µM | 16.5 µM | 4.32 µM | 5.65 µM | 15.9 µM | 2.08 µM | 2.3 µM | 2.05 µM | 1.33 µM | 1.52 µM | 1.63 µM | 3.36 µM | 1.99 µM | 2.14 µM | 4.68 µM |
| Nc1nc(-c2ccccc2)nc(N)c1N=O | 33 µM | 29.2 µM | 27.9 µM | 27.1 µM | 19.5 µM | 13 µM | 30.6 µM | 7.27 µM | 66.3 µM | 27.6 µM | 14.4 µM | 10 µM | 8.02 µM | 5.85 µM | 5.68 µM | 3.14 µM | 15.6 µM | 2.27 µM | 18.6 µM | 14.1 µM |
